Paper PMC7251097, “Aspartate/asparagine-β-hydroxylase: a high-throughput mass spectrometric assay for discovery of small molecule inhibitors” (Scientific Reports, 2020)
Values joined by “and” are separate entries in the source; they are usually repeats but may differ in a detail not shown here. Equal entries are not always repeated. Structures can show the parent of a compound that is named as a salt. Where two headings read alike, the source gives them in different places.

Biological target: T1, His6-AspH315–758 (human aspartate/asparagine-β-hydroxylase, AspH) (Homo sapiens, UniProt Q12797)
T1 construct: N-Terminally His6-tagged human AspH315–758 (His6-AspH315–758) was produced in E. coli BL21 (DE3) cells; made in house; host or cells: E. coli BL21 (DE3), pET-28a(+) vector
T1 sequence (Q12797 315-758): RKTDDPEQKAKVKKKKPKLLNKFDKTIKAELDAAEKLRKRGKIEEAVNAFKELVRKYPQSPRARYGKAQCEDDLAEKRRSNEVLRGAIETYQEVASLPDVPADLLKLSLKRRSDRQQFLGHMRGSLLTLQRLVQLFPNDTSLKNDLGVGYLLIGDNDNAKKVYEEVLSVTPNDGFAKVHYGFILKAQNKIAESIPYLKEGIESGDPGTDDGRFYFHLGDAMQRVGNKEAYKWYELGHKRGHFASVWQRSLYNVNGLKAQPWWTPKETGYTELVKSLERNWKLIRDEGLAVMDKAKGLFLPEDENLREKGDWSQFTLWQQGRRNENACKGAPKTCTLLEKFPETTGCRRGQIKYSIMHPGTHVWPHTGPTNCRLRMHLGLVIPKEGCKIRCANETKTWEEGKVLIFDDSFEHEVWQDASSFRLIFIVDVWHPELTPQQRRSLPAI
Assay: SPE-MS AspH inhibition assay (LOPAC screen at fixed 20 μM and IC50 dose-response), hydroxylation of cyclic peptide hFX-CP101–119
Assay type: biochemical
Details: for IC50: read-out: IC50

[1] = plate 5 (Pfitzer), test compounds at fixed 20 μM
[2] = plate 5 (Pfitzer), test compounds at fixed 20 μM, mean conversion DMSO 32.88
[3] = LOPAC compound at fixed 20 uM, plate 1, normalised to DMSO and 2,4-PDCA controls
[4] = LOPAC compound at fixed 20 uM, substrate conversion, plate 1
[5] = LOPAC compound at 20uM, plate 3, conversion of substrate peptide
[6] = AspH activity, fixed compound concentration 20 μM, initial LOPAC screen, 0.5%v/v DMSO
[7] = LOPAC Plate 4, compound at 20 uM, substrate conversion
[8] = LOPAC compound at 20uM, plate 2, conversion of substrate peptide
[9] = LOPAC compound at 20uM, plate 2, normalised to DMSO and 2,4-PDCA controls, read-out: Plate 2 (% inhibition)
[10] = LOPAC Plate 4, compound at 20 uM, read-out: % inhibition
[11] = LOPAC compound at 20uM, plate 2, normalised to DMSO and 2,4-PDCA controls

Cc1c([N+](=O)[O-])cc2[nH]c(=O)c(=O)[nH]c2c1CN1CCCC1 [PD-161989]
Plate 5 (% inhibition) [1]: 16.45% | Plate 5 (% conversion) [2]: 30.72%

CC(C)C[C@H](NC(=O)[C@@H](O)[C@H](N)Cc1ccccc1)C(=O)O [Bestatin hydrochloride]
Plate 1 (% inhibition) [3]: -4.72% | Plate 1 (% conversion) [4]: 37.46%

CP-316819
Plate 5 (% conversion): 34.19% | Plate 5 (% inhibition): 6.23%

Cc1ccc(Cl)c(Nc2ccccc2C(=O)O)c1Cl [Meclofenamic acid sodium]
Plate 3 (% conversion) [5]: 31.27%

CC(C)c1ccc2c(c1)c(SC(C)(C)C)c(CC(C)(C)C(=O)O)n2Cc1ccc(Cl)cc1 [MK-886, reference compound]
IC50 (50 nM His6-AspH315–758, 1.0 μM hFX-CP101–119, 3 μM 2OG, 2 μM Fe(II), 50 mM HEPES pH 7.5, 20 °C, mean ± SD, n = 2 (2,4-PDCA n = 10)): 8580 ± 1930 nM | Inhibition at 20 µM [%] [6]: 99.9%

CN(C)CCCN1c2ccccc2Sc2ccc(Cl)cc21 [Chlorpromazine hydrochloride]
Plate 1 (% inhibition) [3]: -29.45% | Plate 1 (% conversion) [4]: 45.76%

Nc1nc2c(cnn2CCc2ccccc2)c2nc(-c3ccco3)nn12 [SCH 58261]
% conversion [7]: 31.57%

O=C(O)C1CCCNC1 (racemic) [(±)-Nipecotic acid]
Plate 1 (% conversion): 30.40% | Plate 1 (% inhibition): 16.29%

Cc1cc(Cl)ccc1OCCCC(=O)NO [Droxinostat]
Plate 1 (% inhibition) [3]: 1.86% | Plate 1 (% conversion) [4]: 35.25%

O=C(O)c1cc2cc(F)ccc2[nH]1 [5-Fluoroindole-2-carboxylic acid]
Plate 1 (% conversion): 31.84% | Plate 1 (% inhibition): 12.00%

O=C(CCCN1CCC(O)(c2cccc(C(F)(F)F)c2)CC1)c1ccc(F)cc1 [Trifluperidol hydrochloride]
% conversion [7]: 30.59%

Br.C=CCN1CCc2c(cc(O)c(O)c2Br)[C@@H](c2ccccc2)C1 [R(+)-6-Bromo-APB hydrobromide, reference compound]
Inhibition at 20 µM [%] [6]: 95.0% | Plate 1 (% inhibition) [3]: 95.00% | Plate 1 (% conversion) [4]: 3.97%

Oc1cc(O)cc(/C=C/c2ccc(O)c(O)c2)c1 [Piceatannol, reference compound]
inhibition at 20 µM (AspH activity, fixed compound concentration 20 μM, initial LOPAC screen, 0.5%v/v DMSO, read-out: Inhibition at 20 µM [%]): 99.9% | Plate 3 (% conversion) [5]: 2.48%

CC(/C=C/c1cccc(Oc2ccc(F)cc2)c1)N(O)C(N)=O (centres unmarked) [BWB70C]
Plate 1 (% inhibition) [3]: -3.19% | Plate 1 (% conversion) [4]: 36.94%

CC(=O)OCC1=C(C(=O)[O-])N2C(=O)[C@@H](NC(=O)CCC[C@@H](N)C(=O)[O-])[C@H]2SC1.[Zn+2] [cephalosporin C zinc salt, reference compound]
Inhibition at 20 µM [%]: 98.1% | Plate 1 (% conversion): 2.94% | IC50 (pH 7.5): ~70 nM and 70 nM

COc1ccc2c(c1)CC[C@@H]1[C@@H]2CC[C@]2(C)[C@@H](NCCCCCCN3C(=O)CCC3=O)CC[C@@H]12 [U-73343]
Plate 3 (% conversion): 43.26%

CC[N+](CC)(CC)CCOc1ccc(/C=C/c2ccccc2)cc1 [MG 624]
Plate 3 (% conversion) [5]: 29.92%

OCCN1CCN(CC/C=C2/c3ccccc3Sc3ccc(C(F)(F)F)cc32)CC1 [cis-(Z)-Flupenthixol dihydrochloride]
Plate 2 (% conversion) [8]: 67.44% | inhibition at 20 µM [9]: -94%

NC/C=C\C(=O)O [cis-4-Aminocrotonic acid]
Plate 1 (% inhibition) [3]: -8.37% | Plate 1 (% conversion) [4]: 38.68%

NS(=O)(=O)Cc1noc2ccccc12 [Zonisamide sodium]
% conversion [7]: 32.12%

NC(=O)c1cnccn1 [Pyrazinecarboxamide]
% conversion [7]: 32.31%

CC1COc2c(N3CCN(C)CC3)c(F)cc3c(=O)c(C(=O)O)cn1c23 (centres unmarked) [Ofloxacin]
Plate 3 (% conversion) [5]: 41.94%

Cl.N=C(N)NN [Aminoguanidine hydrochloride]
Plate 1 (% inhibition) [3]: -12.95% | Plate 1 (% conversion) [4]: 40.22%

C[C@H](O)C(=O)C1=Nc2c(nc(N)[nH]c2=O)NC1 [Sepiapterin]
% conversion [7]: 40.54% | inhibition at 20 µM [10]: -11.9%

C[C@]12CC[C@@H](O)C[C@@H]1CC[C@@H]1[C@@H]2CC[C@]2(C)[C@@H](C(=O)CO)CC[C@@H]12
Plate 3 (% conversion): 42.66%

O=C(O)c1cc(O)cc(C(=O)O)n1 [Chelidamic acid]
Plate 1 (% inhibition) [3]: 48.94% | Plate 1 (% conversion) [4]: 19.44%

CN(CCC(Oc1ccc(C(=O)c2nccs2)cc1)c1ccc(Cl)cc1)CC(=O)O (centres unmarked) [CP-802079]
Plate 5 (% conversion): 32.57% | Plate 5 (% inhibition): 11.01%

CCCn1c(=O)c2[nH]c(C3CCCC3)nc2n(CCC)c1=O [8-Cyclopentyl-1,3-dipropylxanthine]
Plate 2 (% conversion): 38.65% | Plate 2 (% inhibition) (20 µM): -8.06%

O=C1CC[C@@]2(O)[C@H]3Cc4ccc(O)c5c4[C@@]2(CCN3CC2CC2)[C@H]1O5 [Naltrexone hydrochloride]
Plate 3 (% conversion): 34.83%

NC(=O)c1cc(N2CC2)c([N+](=O)[O-])cc1[N+](=O)[O-] [CB 1954]
Plate 1 (% inhibition) [3]: 4.86% | Plate 1 (% conversion) [4]: 34.24%

CC(C(=O)O)c1cccc(C(=O)c2ccccc2)c1 (centres unmarked) [Ketoprofen]
Plate 3 (% conversion) [5]: 34.58%

CC(Cc1ccc(O)c(O)c1)C(C)Cc1ccc(O)c(O)c1 (centres unmarked) [Nordihydroguaiaretic acid, reference compound]
Inhibition at 20 µM [%] [6]: 98.9%

O=C(O)C=Cc1c[nH]cn1 [4-Imidazoleacrylic acid]
% conversion: 20.39%

Cl.NO [Hydroxylamine hydrochloride]
Plate 2 (% conversion) [8]: 39.20% | Plate 2 (% inhibition) [11]: -9.70%

Ro 90-7501
Plate 3 (% conversion) [5]: 39.97%

N.N.[Cl][Pt][Cl] [Cisplatin]
Plate 3 (% conversion) [5]: 31.15%

O=C1CCC(c2ccc(-n3ccnc3)cc2)=NN1 [Imazodan]
Plate 2 (% conversion) [8]: 38.21% | inhibition at 20 µM [9]: -6.74%

Cc1cc(O)c2c(c1)C(=O)c1cc(O)cc(O)c1C2=O [Emodin]
Plate 2 (% conversion): 37.82% | inhibition at 20 µM [9]: -5.58%

CCOC(=O)N1c2ccc(C(F)(F)F)cc2[C@@H](N(Cc2cc(C(F)(F)F)cc(C(F)(F)F)c2)C(=O)OC)C[C@H]1CC [Torcetrapib]
Plate 5 (% inhibition) [1]: 13.93% | Plate 5 (% conversion) [2]: 31.57%

CCNc1nc2c(ncn2[C@H]2C[C@H](O)[C@@H](CO)O2)c(=O)[nH]1 [N2-Ethyl-2-deoxyguanosine]
% conversion [7]: 26.09%

O=C(Nc1ccccc1C(=O)NC1CCCCNC1=O)c1cc2ccccc2s1 (centres unmarked) [ANA-12]
% conversion [7]: 32.70%

CC[C@H](CO)Nc1nc(NCc2ccccc2)c2ncn(C(C)C)c2n1 [Roscovitine]
Plate 1 (% conversion): 40.73% | Plate 1 (% inhibition): -14.45%

COc1cccc(OC)c1-c1cc(C(=O)NC2(C(=O)O)C3CC4CC(C3)CC2C4)nn1-c1ccc(C(=O)N(C)CCCN(C)C)cc1C(C)C (centres unmarked) [SR 142948A]
Plate 2 (% conversion) [8]: 44.18% | Plate 2 (% inhibition) [11]: -24.57%

CC(NCCc1ccc(O)cc1)C(O)c1ccc(O)cc1 (centres unmarked) [Ritodrine hydrochloride]
% conversion [7]: 37.24% | inhibition at 20 µM [10]: -2.24%

CC(=O)NBr [N-Bromoacetamide]
Plate 1 (% inhibition) [3]: 71.66% | Plate 1 (% conversion) [4]: 11.81%

CCCCCCCCCCC/C=C\C(C)(C)/C=C\CCCC(=O)O [7,7-Dimethyl-(5Z,8Z)-eicosadienoic acid]
Plate 2 (% conversion) [8]: 5.42% | Plate 2 (% inhibition) [11]: 91.20%

C=C(C)[C@H]1CN[C@H](C(=O)O)[C@H]1CC(=O)O [Kainic acid]
Plate 3 (% conversion): 38.81%

CC(=O)NCCc1c[nH]c2ccc(O)cc12 [N-Acetyl-5-hydroxytryptamine]
Plate 1 (% conversion): 34.66% | Plate 1 (% inhibition): 3.61%

Cn1c(=O)c2[nH]cnc2n(C)c1=O [Theophylline]
% conversion: 39.26% | inhibition at 20 µM: -8.17%

CN1C[C@H](CNC(=O)OCc2ccccc2)C[C@@H]2c3cccc4c3c(cn4C)C[C@H]21 [Metergoline]
Plate 3 (% conversion) [5]: 47.43%

O=c1oc(Cl)c(Cl)c2ccccc12 [3,4-Dichloroisocoumarin]
Plate 2 (% conversion): 29.65% | Plate 2 (% inhibition) [11]: 18.85%

CC(C(O)c1ccc(O)cc1)N1CCC(Cc2ccccc2)CC1.CC(C(O)c1ccc(O)cc1)N1CCC(Cc2ccccc2)CC1.O=C(O)C(O)C(O)C(=O)O (centres unmarked) [Ifenprodil tartrate]
Plate 3 (% conversion) [5]: 17.74%

C=C1C[C@@]23CC[C@H]4[C@@](C)(CCC[C@@]4(C)C(=O)O)[C@@H]2CC[C@]1(O)C3 [Steviol]
% conversion [7]: 37.50% | inhibition at 20 µM [10]: -3.02%

COc1ccc(C(=O)N2CCCC2=O)cc1 [Aniracetam]
Plate 1 (% conversion): 23.49% | Plate 1 (% inhibition): 36.86%

CCn1cc(C(=O)O)c(=O)c2cc(F)c(N3CCNC(C)C3)c(F)c21 (centres unmarked) [Lomefloxacin hydrochloride]
Plate 3 (% conversion) [5]: 37.37%

CC#CCOC(=O)c1c(C)nc2sc3c(c2c1N)CCC(O)C3 (centres unmarked) [SB 205384]
% conversion: 39.48%
